# Source: patent US20210040041A1, “QUINOLINE DERIVATIVES AND PREPARATION METHODS AND USES THEREOF” (DONGGUAN HEC PESTICIDES R&D CO., LTD., priority 2018, published 2021)
# Assays:
# Assay type in all cases: in vivo
# Diamondback moth = assay: Test examples 2: leaf dipping method, Diamondback moth; conditions: Plutella xylostella, foliar, 72 h, after 3 days, read-out: The mortality rate (%) of the compound to Diamondback moth; for mortality at 12.5 µg/mL: 12.5 mg/L; for mortality at 25 µg/mL: 25 mg/L; for mortality at 50 µg/mL: 50 mg/L
# Protocol: (§1) A certain amount of compound (0.0001 g) was weighed by using an analytical balance, and prepared to a mother liquid (1%) with N, N-dimethylformamide containing 1% Tween-80 emulsifier, and then the mother liquid was diluted with distilled water for standby.
# (§2) Leaf dipping method: an appropriate amount of corn leaves/cabbage/cowpea were infiltrated in the prepared liquid and dried in the shade naturally, and then placed in a culture dish with filter paper; armyworm/Diamondback moth/Beet Armyworm larvae in the 2-3rd instar were inoculated to the corn leaves, 10 heads per dish, and the dishes were cultured in an observation room at 24-27° C. The results were investigated after 3 days. […] The test concentrations were 50 mg/L, 25 mg/L, 12.5 mg/L, 6.25 mg/L, 3.13 mg/L, 1.56 mg/L.
# Armyworm [1] = assay: Test examples 2: leaf dipping method, Armyworm; conditions: Mythimna separata, foliar, 72 h, after 3 days, read-out: The mortality rate (%) of the compound to Armyworm; for mortality at 12.5 µg/mL: 12.5 mg/L; for mortality at 25 µg/mL: 25 mg/L; for mortality at 50 µg/mL: 50 mg/L
# Protocol: as §1, §2
# Beet Armyworm = assay: Test examples 2: leaf dipping method, Beet Armyworm; conditions: Spodoptera exigua, foliar, 72 h, after 3 days, read-out: The mortality rate (%) of the compound to Beet Armyworm; for mortality at 12.5 µg/mL: 12.5 mg/L; for mortality at 25 µg/mL: 25 mg/L; for mortality at 50 µg/mL: 50 mg/L
# Protocol: as §1, §2
# [2] = system: Frankliniella occidentalis; assay: Test examples 2: spraying of cowpea leaf discs, Frankliniella occidentalis; conditions: foliar, 24 h, after 1 day, read-out: The mortality rate (%) of the compound to Frankliniella occidentalis; for mortality at 5 µg/mL: 5 mg/L; for mortality at 10 µg/mL: 10 mg/L; for mortality at 20 µg/mL: 20 mg/L
# Protocol: as §1
# Spraying: cowpea leaves growing uniformity were punched with a punching bear to make leaf discs, leaf discs were placed onto degreased cotton blocks in a dish, two leaf discs per dish, and water was added into the dish and it was flush with the leaf discs, and the dish was for standby. Frankliniella occidentalis in the 2-3rd instar were inoculated to the ready leaf discs, more than 15 per disc. Which were spayed under Potter spray tower at a dose of 0.5 mL per treatment. The blank control was treated first, and then the above operations were repeated in the order of the test dose from low to high, with 2 repeats per treatment. After treatment, the samples were placed in the observation room, and the results were investigated 1 day later. […] The test concentrations were 20 mg/L, 10 mg/L, 5.0 mg/L, 2.5 mg/L, 1.25 mg/L, 0.625 mg/L.
# Armyworm [3] = assay: Test examples 3: leaf dipping method, cabbage, Armyworm; conditions: after 3 days
# Protocol: A certain amount of compound (0.0001 g) was weighed by using an analytical balance, and prepared to a mother liquid (1) with N,N-dimethylformamide containing 1% Tween-80 emulsifier, and then the other liquid was diluted with distilled water or standby.
# as §2, with “cabbage was” for “corn leaves/cabbage/cowpea were”, “Armyworm/Diamondback moth” for “armyworm/Diamondback moth/Beet Armyworm”, “inoculated,” for “inoculated to the corn leaves,”
molecule,measurement,setting,value
"CCc1nc2ccc(Oc3ccc(C(C)(C)C)cc3)c(C)c2c(OC(=O)OCCOC)c1C [Example 22, 6-(4-(tert-butyl)phenoxy)-2-ethyl-3,5-dimethylquinolin-4-yl (2-methoxyethyl) carbonate]",mortality at 12.5 µg/mL,Diamondback moth,85%
same,mortality at 25 µg/mL,Diamondback moth,90%
same,mortality at 50 µg/mL,Diamondback moth,100%
same,mortality at 12.5 µg/mL,Armyworm [1],80%
same,mortality at 25 µg/mL,Armyworm [1],95%
same,mortality at 50 µg/mL,Armyworm [1],100%
"CCc1nc2ccc(Oc3ccc(OC(F)(F)F)cc3)c(C)c2c(OC(=O)OCCOC)c1C [Example 39, 2-ethyl-3,5-dimethyl-6-(4-(trifluoromethoxy)phenoxy)quinolin-4-yl (2-methoxyethyl) carbonate]",mortality at 12.5 µg/mL,Diamondback moth,100%
same,mortality at 25 µg/mL,Diamondback moth,100%
same,mortality at 50 µg/mL,Diamondback moth,100%
same,mortality at 12.5 µg/mL,Armyworm [1],100%
same,mortality at 25 µg/mL,Armyworm [1],100%
same,mortality at 50 µg/mL,Armyworm [1],100%
"CCOCCOC(=O)Oc1c(C)c(CC)nc2cc(C)c(Oc3ccc(OC(F)(F)F)cc3)cc12 [Example 17, 2-ethoxyethyl (2-ethyl-3,7-dimethyl-6-(4-(trifluoromethoxy)phenoxy)quinolin-4-yl) carbonate]",mortality at 12.5 µg/mL,Diamondback moth,100%
same,mortality at 25 µg/mL,Diamondback moth,100%
same,mortality at 50 µg/mL,Diamondback moth,100%
same,mortality at 12.5 µg/mL,Armyworm [1],100%
same,mortality at 25 µg/mL,Armyworm [1],100%
same,mortality at 50 µg/mL,Armyworm [1],100%
CCc1nc2ccc(Oc3ccc(OC(F)(F)F)cc3)c(C)c2c(OC(=O)OCC2CCCO2)c1C (stereo not drawn) [Example 38],mortality at 12.5 µg/mL,Diamondback moth,92%
same,mortality at 25 µg/mL,Diamondback moth,100%
same,mortality at 50 µg/mL,Diamondback moth,100%
same,mortality at 12.5 µg/mL,Beet Armyworm,70%
same,mortality at 25 µg/mL,Beet Armyworm,100%
same,mortality at 50 µg/mL,Beet Armyworm,100%
same,mortality at 12.5 µg/mL,Armyworm [1],90%
same,mortality at 25 µg/mL,Armyworm [1],100%
same,mortality at 50 µg/mL,Armyworm [1],100%
same,mortality at 5 µg/mL,[2],90%
same,mortality at 10 µg/mL,[2],100%
same,mortality at 20 µg/mL,[2],100%
"CCc1nc2cc(C)c(Oc3ccc(C(C)(C)C)cc3)cc2c(OC(=O)OCCOC)c1C [Example 4, 6-(4-(tert-butyl)phenoxy)-2-ethyl-3,7-dimethylquinolin-4-yl (2-methoxyethyl)carbonate]",mortality at 12.5 µg/mL,Diamondback moth,90%
same,mortality at 25 µg/mL,Diamondback moth,100%
same,mortality at 50 µg/mL,Diamondback moth,100%
same,mortality at 12.5 µg/mL,Armyworm [1],80%
same,mortality at 25 µg/mL,Armyworm [1],90%
same,mortality at 50 µg/mL,Armyworm [1],100%
CCc1nc2cc(C)c(Oc3ccc(OC(F)(F)F)cc3)cc2c(OC(=O)OCC2CCCO2)c1C (stereo not drawn) [Example 8],mortality at 12.5 µg/mL,Diamondback moth,93%
same,mortality at 25 µg/mL,Diamondback moth,100%
same,mortality at 50 µg/mL,Diamondback moth,100%
same,mortality at 12.5 µg/mL,Beet Armyworm,70%
same,mortality at 25 µg/mL,Beet Armyworm,95%
same,mortality at 50 µg/mL,Beet Armyworm,100%
same,mortality at 12.5 µg/mL,Armyworm [1],100%
same,mortality at 25 µg/mL,Armyworm [1],100%
same,mortality at 50 µg/mL,Armyworm [1],100%
same,mortality at 5 µg/mL,[2],85%
same,mortality at 10 µg/mL,[2],100%
same,mortality at 20 µg/mL,[2],100%
"2-ethyl-3,5,7-trimethyl-6-(4-(trifluoromethoxy)phenoxy)quinolin-4-ol [compound (42)]",The mortality rate (%) to Armyworm,Armyworm [3]; 12.5 mg/L,80%
same,The mortality rate (%) to Armyworm,Armyworm [3]; 25 mg/L,85%
same,The mortality rate (%) to Armyworm,Armyworm [3]; 50 mg/L,95%
"CCc1nc2cc(C)c(Oc3ccc(C(C)(C)C)cc3)c(C)c2c(OC(=O)OCC2CCCO2)c1C (stereo not drawn) [Example 36, 6-(4-(tert-butyl)phenoxy)-2-ethyl-3,5,7-trimethylquinolin-4-yl ((tetrahydrofuran-2-yl)methyl) carbonate]",mortality at 12.5 µg/mL,Diamondback moth,85%
same,mortality at 25 µg/mL,Diamondback moth,95%
same,mortality at 50 µg/mL,Diamondback moth,100%
same,mortality at 12.5 µg/mL,Armyworm [1],90%
same,mortality at 25 µg/mL,Armyworm [1],100%
same,mortality at 50 µg/mL,Armyworm [1],100%
CCc1nc2cc(C)c(Oc3ccc(OC(F)(F)F)cc3)c(C)c2c(OC(=O)OCC2CCCO2)c1C (stereo not drawn) [Example 37],mortality at 12.5 µg/mL,Diamondback moth,95%
same,mortality at 25 µg/mL,Diamondback moth,100%
same,mortality at 50 µg/mL,Diamondback moth,100%
same,mortality at 12.5 µg/mL,Beet Armyworm,75%
same,mortality at 25 µg/mL,Beet Armyworm,100%
same,mortality at 50 µg/mL,Beet Armyworm,100%
same,mortality at 12.5 µg/mL,Armyworm [1],100%
same,mortality at 25 µg/mL,Armyworm [1],100%
same,mortality at 50 µg/mL,Armyworm [1],100%
same,mortality at 5 µg/mL,[2],95%
same,mortality at 10 µg/mL,[2],100%
same,mortality at 20 µg/mL,[2],100%
"CCc1nc2cc(C)c(Oc3ccc(C(C)(C)C)cc3)c(C)c2c(OC(=O)OCCOC)c1C [Example 26, 6-(4-(tert-butyl)phenoxy)-2-ethyl-3,5,7-trimethylquinolin-4-yl (2-methoxyethyl) carbonate]",mortality at 12.5 µg/mL,Diamondback moth,85%
same,mortality at 25 µg/mL,Diamondback moth,95%
same,mortality at 50 µg/mL,Diamondback moth,100%
same,mortality at 12.5 µg/mL,Armyworm [1],90%
same,mortality at 25 µg/mL,Armyworm [1],100%
same,mortality at 50 µg/mL,Armyworm [1],100%
"CCOCCOC(=O)Oc1c(C)c(CC)nc2cc(C)c(Oc3ccc(OC(F)(F)F)cc3)c(C)c12 [Example 40, 2-ethoxyethyl (2-ethyl-3,5,7-trimethyl-6-(4-(trifluoromethoxy)phenoxy)quinolin-4-yl) carbonate]",mortality at 12.5 µg/mL,Diamondback moth,95%
same,mortality at 25 µg/mL,Diamondback moth,100%
same,mortality at 50 µg/mL,Diamondback moth,100%
same,mortality at 12.5 µg/mL,Armyworm [1],95%
same,mortality at 25 µg/mL,Armyworm [1],100%
same,mortality at 50 µg/mL,Armyworm [1],100%
"CCc1nc2cc(C)c(Oc3ccc(OC(F)(F)F)cc3)c(C)c2c(OC(=O)OCCOC)c1C [Example 18, 2-ethyl-3,5,7-trimethyl-6-(4-(trifluoromethoxy)phenoxy)quinolin-4-yl (2-methoxyethyl) carbonate]",mortality at 12.5 µg/mL,Diamondback moth,100%
same,mortality at 25 µg/mL,Diamondback moth,100%
same,mortality at 50 µg/mL,Diamondback moth,100%
same,mortality at 12.5 µg/mL,Beet Armyworm,90%
same,mortality at 25 µg/mL,Beet Armyworm,100%
same,mortality at 50 µg/mL,Beet Armyworm,100%
same,mortality at 12.5 µg/mL,Armyworm [1],100%
same,mortality at 25 µg/mL,Armyworm [1],100%
same,mortality at 50 µg/mL,Armyworm [1],100%
same,mortality at 5 µg/mL,[2],100%
same,mortality at 10 µg/mL,[2],100%
same,mortality at 20 µg/mL,[2],100%
"CCc1nc2cc(C)c(Oc3ccc(OC(F)(F)F)cc3)c(C)c2c(OC(=O)OCCOC(C)C)c1C [Example 41, 2-ethyl-3,5,7-trimethyl-6-(4-(trifluoromethoxy)phenoxy)quinolin-4-yl (2-isopropoxyethyl) carbonate]",mortality at 12.5 µg/mL,Diamondback moth,90%
same,mortality at 25 µg/mL,Diamondback moth,100%
same,mortality at 50 µg/mL,Diamondback moth,100%
same,mortality at 12.5 µg/mL,Armyworm [1],80%
same,mortality at 25 µg/mL,Armyworm [1],100%
same,mortality at 50 µg/mL,Armyworm [1],100%
"CCc1nc2ccc(Oc3ccc(C(C)(C)C)cc3)c(C)c2c(OC(=O)OCC2CCCO2)c1C (stereo not drawn) [Example 35, 6-(4-(tert-butyl)phenoxy)-2-ethyl-3,5-dimethylquinolin-4-yl ((tetrahydrofuran-2-yl)methyl) carbonate]",mortality at 12.5 µg/mL,Diamondback moth,80%
same,mortality at 25 µg/mL,Diamondback moth,90%
same,mortality at 50 µg/mL,Diamondback moth,100%
same,mortality at 12.5 µg/mL,Armyworm [1],80%
same,mortality at 25 µg/mL,Armyworm [1],95%
same,mortality at 50 µg/mL,Armyworm [1],100%
CCc1nc2cc(C)c(Oc3ccc(OC(F)(F)F)cc3)cc2c(OC(=O)OCCOCCOC)c1C [Example 7],mortality at 12.5 µg/mL,Diamondback moth,85%
same,mortality at 25 µg/mL,Diamondback moth,90%
same,mortality at 50 µg/mL,Diamondback moth,100%
same,mortality at 12.5 µg/mL,Beet Armyworm,80%
same,mortality at 25 µg/mL,Beet Armyworm,100%
same,mortality at 50 µg/mL,Beet Armyworm,100%
same,mortality at 12.5 µg/mL,Armyworm [1],100%
same,mortality at 25 µg/mL,Armyworm [1],100%
same,mortality at 50 µg/mL,Armyworm [1],100%
same,mortality at 5 µg/mL,[2],95%
same,mortality at 10 µg/mL,[2],100%
same,mortality at 20 µg/mL,[2],100%
